From PubChem BioAssay (NCI)
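Step 1: Grow cells in 96-well plates. Step 2: Expose to compound for 48 hours at 5 concentrations. Step 3: Interpolate endpoints linearly; if unreached, use highest concentration. Abbreviation: GI50, concentration required for 50% inhibition of growth. TGI denotes the concentration required for complete inhibition of growth.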

How the values were obtained:
Assay in all cases: growth of human tumour cells (NCI), 48 h
CAKI-1 renal = test system: CAKI-1 renal
CCRF-CEM leukemia = test system: CCRF-CEM leukemia
DU-145 prostate = test system: DU-145 prostate
HOP-92 NSCLC = test system: HOP-92 NSCLC
K-562 leukemia = test system: K-562 leukemia
KM12 colon = test system: KM12 colon
MOLT-4 leukemia = test system: MOLT-4 leukemia
OVCAR-3 ovarian = test system: OVCAR-3 ovarian
OVCAR-8 ovarian = test system: OVCAR-8 ovarian
RPMI-8226 leukemia = test system: RPMI-8226 leukemia
RXF 393 renal = test system: RXF 393 renal
SF-295 CNS = test system: SF-295 CNS
SW-620 colon = test system: SW-620 colon
UACC-62 melanoma = test system: UACC-62 melanoma

Structure (SMILES)	TGI (CAKI-1 renal) [µM]	TGI (CCRF-CEM leukemia) [µM]	TGI (DU-145 prostate) [µM]	TGI (HOP-92 NSCLC) [µM]	TGI (K-562 leukemia) [µM]	TGI (KM12 colon) [µM]	TGI (MOLT-4 leukemia) [µM]	TGI (OVCAR-3 ovarian) [µM]	TGI (OVCAR-8 ovarian) [µM]	TGI (RPMI-8226 leukemia) [µM]	GI50 (RXF 393 renal) [µM]	TGI (RXF 393 renal) [µM]	TGI (SF-295 CNS) [µM]	TGI (SW-620 colon) [µM]	TGI (UACC-62 melanoma) [µM]	GI50 (K-562 leukemia) [µM]
CCOC(=O)CCC(NC(=O)C(N)Cc1ccc(N(CCCl)CCCl)cc1)C(=O)OCC (centres undefined)	3.08	4.29	2.34	1.59	12.7	3.43	1.99	1.68	2.4	17.7	0.17	0.739	11.7	5.3	1.4	
CCCCCCc1cc2cc(-c3cn4ccsc4n3)c(=O)oc2cc1O	> 95.9	> 100	> 100	> 100	> 100	> 100	> 100	> 100	> 71.8	> 100		> 94.8	> 100	> 100	> 50.8	
CCOC(=O)/C(C#N)=C/c1coc2cc(C)cc(C)c2c1=O	> 100	> 100	> 100	> 100	> 100	> 100	> 100	> 100	> 100	> 100		> 100	> 100	> 100	> 100	
Cc1ccc(-[n+]2cc([O-])on2)cc1	> 100	> 100	> 100	> 100	> 100	> 100	> 100	> 100	> 100	> 100		> 100	> 100	> 100	> 100	
CCOC(=O)c1cn2c(n1)sc1cc(F)ccc12	> 100	> 100	> 100	> 100	> 100	> 100	> 100	> 100	> 100	> 100		> 100	> 100	> 100	> 100	
Cc1ccc(S(=O)(=O)N2CC2CCCCC=O)cc1 (centres undefined)	> 100	55.1	> 100	> 100	> 100	> 100	> 100	> 100	> 100	> 100		> 100	> 100	> 100	> 100	
O=C(C(=O)n1ccc2ccccc21)n1ccc2ccccc21	> 100	> 100	> 100	> 100	> 100		> 100	> 100	> 100	> 100		> 100	> 100	> 100	> 100	
COc1cccc(-c2cc(=O)c3cc(N4CCCCC4)ccc3[nH]2)c1	> 100	> 100	> 100	> 100	> 100	0.783	> 100	13.3	> 100	> 100		1.62		> 100	> 100	
CC(=O)CC1CCC(=O)/C=C/C(=O)OC(CC(C)=O)CCC(=O)/C=C/C(=O)O1 (centres undefined)	20	> 100	35	10.3	> 20.9	42.8	> 100	17.1	53.5	> 100		8.55	18.4	3.65	29.1	
O=C1C(Br)=C(Br)C(=O)c2ccc(=O)ccc21	64.2	17	> 100	34.8	> 61.9	> 100	23.5	41.8	50.8	43		36.3	50.9	42.7	39.4	
O=C1c2cc3c(cc2CC12Cc1ccc4c(c1C2=O)CCC4)CCCC3 (centres undefined)	> 100	> 100	> 100	> 100	> 100		> 100	> 100	> 100	> 100		> 100	> 100	> 100		
O=c1c(F)cn(Cc2c(Cl)cccc2Cl)c(=O)n1Cc1c(Cl)cccc1Cl	> 31.6	> 31.6	> 100	> 31.6	> 31.6	> 31.6	> 31.6	> 31.6	> 31.6	> 31.6		> 31.6	> 31.6	> 31.6	> 31.6	
CC(C)(CN1CCCCC1)C(/C=C/c1ccc(Cl)cc1)=N\NC(=O)N/N=C(/C=C/c1ccc(Cl)cc1)C(C)(C)CN1CCCCC1	7.3	> 21.9	18	8.72	> 100	16.9	9.97	10.7	23.1	54.8		8.24	33	7.67	12.1	
Cc1ccc(S(=O)(=O)N2C3C=CC(C3)[C@@H]2C(Cl)(Cl)Cl)cc1 (some centres undefined)	> 68.5	71.2	> 81.2	38.1	> 100	85.5	75	25.3	> 63.3	32.1	19.2	41.4	35.1	44.9	35.2	28.5
COc1ccc2oc3c(C)cc4c(OC)nnc(OC)c4c3c2c1	> 100	> 100	> 100	> 100	> 100	> 100	> 100	> 100	> 100	> 100		> 100	> 100	> 100	> 100	
